{
  "source": "patent US20050154052A1",
  "about": "“Novel crystalline forms of (s)-citalopram oxalate” (Hetero Drugs Limited, priority 2003, published 2005)",
  "assay": "Solubility of (S)-citalopram oxalate in alcohol",
  "assay_type": "physicochemical",
  "details": "5 gm in 35 ml of methanol at 25° C.",
  "source_text": "According to another aspect of the present invention there is provided a process for preparation of the Form II of (S)-citalopram oxalate. Thus (S)-citalopram oxalate is mixed with an alcohol. (S)-Citalopram oxalate prepared by the process described in, for example, EP 0347066 or the Form I of (S)-citalopram oxalate may be used. The alcohol is either methanol or ethanol or isopropyl alcohol. The solubility of (S)-citalopram oxalate depends on the alcohol used and volume of the alcohol to (S)-citalopram oxalate. For example, 5 gm of (S)-citalopram oxalate is soluble in 35 ml of methanol at 25° C. If (S)-citalopram oxalate is soluble in the conditions of experiment, the Form II of (S)-citalopram oxalate is precipitated from the solution. The techniques such as cooling, partial removal of the solvent, addition of anti-solvent like diisopropyl ether may be used to precipitate the Form II of (S)-citalopram oxalate. If the (S)-citalopram oxalate is insoluble in the alcohol, after mixing (S)-citalopram oxalate and the alcohol the solid is filtered from the contents to obtain Form II of (S)-citalopram oxalate.",
  "note": "Structures can show the parent of a compound that is named as a salt.",
  "data": [
    {"smiles": "CN(C)CCC[C@@]1(c2ccc(F)cc2)OCc2cc(C#N)ccc21", "note": "[(S)-citalopram oxalate, 1(S)-[3-(Dimethylamino)propyl]-1-(4-fluorophenyl)-1,3-dihydro-5-isobenzofurancarbonitrile]", "values": [
      {"measurement": "solubility in methanol", "value": "soluble"}
    ]}
  ]
}
